US20060211651A1, “Persulfated oligosaccharide acting on selectins and chemokine” (Taisho Pharmaceutical Co., Ltd., priority 2002, published 2006)

Legend:
[1] = target: T1, stromal cell-derived factor-1β (Homo sapiens, UniProt P48061); assay: Binding of biotinylated oligosaccharide fraction (streptavidin-alkaline phosphatase) to SDF-1β; details: FIG. 7 panel D; absorbance at 620 nm
T1 construct: purchased Pepro Tech
Experimental: (§1) First, each of oligosaccharides was biotinylated with biotin-LC-hydrazide at a reducing end. To each of the fraction a, the fraction c, the fraction e-1 and the fraction e-2 obtained in the above item (2), 125 mM EZ-link™ biotin-LC-hydrazide and 1M NaCNBH3 in dimethyl sulfoxide/acetic acid (7:3) were added. The resulting reaction mixture was incubated at 65° C. for 3 hours, and then incubated at 37° C. for 12.5 to 18.5 hours to biotinylate an oligosaccharide. Each of the resulting reaction products was subjected to Sephadex G-25 column as described above, to remove unreacted biotin-LC-hydrazide, thereby collecting the fraction containing a biotinylated oligosaccharide. Then, the resulting fraction was evaporated to dryness.
(§2) Then, a part of a fraction containing 16 pmol of each biotinylated oligosaccharide was dissolved in 0.5 ml of the buffer A, and thereafter, each of the resulting solutions and 1 μl (2 pmol) of streptavidin-conjugated alkaline phosphatase [manufactured by Promega] were incubated at 4° C. overnight.
(§3) Each of the resulting products was 3-fold diluted with the buffer A respectively. […] Binding was determined by measuring absorbance at 620 nm using Blue Phos™ substrate. […]

[2] = tested on: secondary lymphoid tissue chemokine; assay: Binding of biotinylated oligosaccharide fraction (streptavidin-alkaline phosphatase) to SLC; details: FIG. 7 panel D; absorbance at 620 nm
Experimental: as §1, §2, §3

[3] = target: T2, L-selectin-Ig (Homo sapiens, UniProt P14151); assay: Binding of biotinylated oligosaccharide fraction (streptavidin-alkaline phosphatase) to L-selectin-Ig; details: FIG. 7 panel D; absorbance at 620 nm
T2 construct: purchased R & D Systems Inc
T2 sequence (P14151 with tags, fused parts or gaps limits assumed): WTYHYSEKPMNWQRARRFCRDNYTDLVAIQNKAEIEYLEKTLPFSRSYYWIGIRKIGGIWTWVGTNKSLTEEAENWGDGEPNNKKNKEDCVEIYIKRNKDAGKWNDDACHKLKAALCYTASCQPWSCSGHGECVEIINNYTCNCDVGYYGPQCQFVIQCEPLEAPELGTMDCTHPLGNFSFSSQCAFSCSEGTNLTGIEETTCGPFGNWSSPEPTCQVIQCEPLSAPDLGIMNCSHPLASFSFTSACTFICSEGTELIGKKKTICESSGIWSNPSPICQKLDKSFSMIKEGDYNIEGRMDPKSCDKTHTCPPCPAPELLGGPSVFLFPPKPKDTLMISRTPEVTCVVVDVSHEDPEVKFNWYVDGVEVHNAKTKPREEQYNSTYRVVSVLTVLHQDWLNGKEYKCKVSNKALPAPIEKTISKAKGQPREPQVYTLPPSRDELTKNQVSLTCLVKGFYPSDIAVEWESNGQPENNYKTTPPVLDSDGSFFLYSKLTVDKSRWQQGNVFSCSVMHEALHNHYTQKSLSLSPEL
Experimental: as §1, §2, §3

[4] = target: T3, γ-interferon inducible protein-10 (Homo sapiens, UniProt P02778); assay: Binding of biotinylated oligosaccharide fraction (streptavidin-alkaline phosphatase) to IP-10; details: FIG. 7 panel D; absorbance at 620 nm
Experimental: as §1, §2, §3

[5] = tested on: P-selectin-Ig; assay: Binding of biotinylated oligosaccharide fraction (streptavidin-alkaline phosphatase) to P-selectin-Ig; details: FIG. 7 panel D; absorbance at 620 nm
Experimental: as §1, §2, §3

[6] = target: T4, platelet factor 4 (Homo sapiens, UniProt P02776); assay: Binding of biotinylated oligosaccharide fraction (streptavidin-alkaline phosphatase) to PF4; details: FIG. 7 panel D; absorbance at 620 nm
T4 sequence (P02776 32-101): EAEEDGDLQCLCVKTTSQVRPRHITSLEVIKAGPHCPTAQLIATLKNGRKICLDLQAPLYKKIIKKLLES
Experimental: as §1, §2, §3

[7] = target: T3, γ-interferon inducible protein-10; assay: Sandwich-type ELISA, versican binding to IP-10; details: FIG. 4 panel B
Experimental: (§4) ACHN cells were cultured for 2 days in the presence or absence of 100 mM sodium chlorate in RPMI 1640 containing 10% by weight of bovine fetal serum. After the conditioned medium was removed, cells were further cultured for 4 days in a serum-free medium, EX-CELL 610 HSF [manufactured by JRH Bioscience] in the presence or absence of 100 mM sodium chlorate. The conditioned medium was recovered, and spun at 10,000×g at 4° C. for 15 minutes to obtain each of a sodium chlorate-treated conditioned medium and sodium chlorate-untreated conditioned medium.
(§5) Binding between each of the resulting low-sulfated versican and intact versican, and chemokine was examined by sandwich-type enzyme-linked immunosorbent assay. […]
(§6) A conditioned medium of sodium chlorate-treated ACHN cells or a conditioned medium of sodium chlorate-untreated ACHN cells was added to a well of the resulting plate, followed by incubation for 1 hour. […] Binding was determined by measuring absorbance at 620 nm using alkaline phosphatase-conjugated streptavidin and Blue Phos™ substrate. […]

[8] = target: T2, L-selectin-Ig; assay: Sandwich-type ELISA, versican binding to L-selectin-Ig; details: FIG. 4 panel B
Experimental: as §4, §5, §6

[9] = tested on: anti-versican monoclonal antibody 2B1; assay: Sandwich-type ELISA, versican binding to antibody 2B1; details: FIG. 4 panel B
Experimental: as §4, §5, §6

[10] = target: T4, platelet factor 4; assay: Sandwich-type ELISA, versican binding to PF4; details: FIG. 4 panel B
Experimental: as §4, §5, §6

[11] = tested on: CD44-Ig; assay: Sandwich-type ELISA, versican binding to CD44-Ig; set-up: species or system human; details: FIG. 4 panel B
CD44-Ig, sequence (P16070 21-178 limits assumed): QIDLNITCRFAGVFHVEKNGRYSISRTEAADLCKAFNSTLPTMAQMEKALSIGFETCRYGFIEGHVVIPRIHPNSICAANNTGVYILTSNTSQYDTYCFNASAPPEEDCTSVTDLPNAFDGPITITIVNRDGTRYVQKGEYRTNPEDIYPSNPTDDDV
Experimental: as §4, §5, §6

[12] = target: T5, stromal cell-derived factor-1α (Homo sapiens, UniProt P48061); assay: Sandwich-type ELISA, versican binding to SDF-1α; details: FIG. 4 panel B
T5 construct: purchased Pepro Tech
Experimental: as §4, §5, §6

[13] = tested on: secondary lymphoid tissue chemokine; assay: Sandwich-type ELISA, versican binding to SLC; details: FIG. 4 panel B
Experimental: as §4, §5, §6

[14] = target: T1, stromal cell-derived factor-1β; assay: Sandwich-type ELISA, versican binding to SDF-1β; details: FIG. 4 panel B
Experimental: as §4, §5, §6

[15] = target: T6, C-terminal truncated secondary lymphoid tissue chemokine (Homo sapiens, UniProt O00585); assay: Sandwich-type ELISA, versican binding to SLC-T; details: FIG. 4 panel B
T6 construct: gift: Dr. Melissa Swoop Wills, Vertex Pharmaceutical Co
T6 sequence (O00585 24-102 limits assumed): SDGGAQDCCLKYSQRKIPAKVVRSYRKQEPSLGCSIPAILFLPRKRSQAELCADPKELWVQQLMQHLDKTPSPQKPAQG
Experimental: as §4, §5, §6

[16] = tested on: P-selectin-Ig; assay: Sandwich-type ELISA, versican binding to P-selectin-Ig; details: FIG. 4 panel B
Experimental: as §4, §5, §6

[17] = target: T2, L-selectin-Ig; assay: Binding inhibition assay (ELISA), biotinylated versican to L-selectin-Ig, various concentrations; details: dose-dependent, FIG. 2 panel A
Experimental: (§7) Inhibition assay of binding between versican and each of L-selectin, P-selectin and CD44 was performed as follows. First, each well on a 96 well flat bottom microtiter plate (Coster EIA/RIA plate No. 3690) was coated with L-selectin-Ig (3 μg/ml), P-selectin-Ig (4 μg/ml) or CD44-Ig (0.25 μg/ml) by a conventional procedure. […] The plate was incubated at room temperature for 2 hours. Thereafter, the plate was washed with the buffer A, and enzyme-linked immunosorbent assay was performed in the same manner as described in Kawashima, H. et al. [J. Biol. Chem., 275, 35448-35456 (2000)]. Binding was determined by measuring absorbance at 620 nm using alkaline phosphatase-conjugated streptavidin and Blue Phos™ substrate.

[18] = tested on: P-selectin-Ig; assay: Binding inhibition assay (ELISA), biotinylated versican to P-selectin-Ig, various concentrations; details: dose-dependent, FIG. 2 panel B
Experimental: as §7

[19] = tested on: CD44-Ig; assay: Binding inhibition assay (ELISA), biotinylated versican to CD44-Ig, various concentrations; set-up: species or system human; details: FIG. 2 panel C
Experimental: as §7

[20] = tested on: E-selectin-Ig; assay: Immunoprecipitation of versican from ACHN conditioned medium with E-selectin-Ig; type: binding; details: FIG. 1 lanes 13 and 14
Experimental: ACHN cells were pre-incubated at 37° C. for 6 hours in RPMI 1640 containing 10% by weight of bovine fetal serum in the presence or absence of 30 mM sodium chlorate. A confluent monolayer of the resulting ACHN cells was labeled by incubation for 18 hours in the presence or absence of 30 mM sodium chlorate, in a medium of either of:
Immunoprecipitation was performed as follows, according to the method described in the publication of Kawashima, H. et al. [Int. Immunol., 11, 393-405 (1999); all teachings of which are hereby incorporated by reference] except that beads were washed using buffer A (0.05% Tween 20, 20 mM HEPES-NaOH, 0.15M NaCl, 1 mM CaCl2, 1 mM MgCl2, pH6.8).
Each of the antibody and the Ig chimera shown in FIG. 1 (equivalent to 10 μg) was coupled to Protein A-Sepharose column (equivalent to 10 μL) by a conventional method, to obtain antibody-coupled Protein A-Sepharose or Ig chimera-coupled Protein A-Sepharose. […]
Thereafter, the beads were washed with the buffer A, to obtain precipitates. The resulting precipitates were subjected to SDS-agarose-PAGE, and thereafter, signal ascribed to ^35S label on a gel was detected by autoradiography.

[21] = target: monomeric L-selectin; details: immobilized ligand; cited from earlier work

## GlcAβ1-3GalNAc(4,6-O-disulfate)β1-4GlcAβ1-3GalNAc(4,6-O-disulfate) [fraction e-2]
[1]
  binding of biotinylated oligosaccharide fraction to stromal cell-derived factor-1β: bound
[2]
  binding of biotinylated oligosaccharide fraction to secondary lymphoid tissue chemokine: bound
[3]
  binding of biotinylated oligosaccharide fraction to L-selectin-Ig: bound
[4]
  binding of biotinylated oligosaccharide fraction to γ-interferon inducible protein-10: bound
[5]
  binding of biotinylated oligosaccharide fraction to P-selectin-Ig: bound

## GlcAβ1-3GalNAc(4,6-O-disulfate)β1-4GlcAβ1-3GalNAc(4-O-sulfate) [fraction e-1]
[1]
  binding of biotinylated oligosaccharide fraction to stromal cell-derived factor-1β: did not bind
[6]
  binding of biotinylated oligosaccharide fraction to platelet factor 4: moderately bound
[2]
  binding of biotinylated oligosaccharide fraction to secondary lymphoid tissue chemokine: did not bind
[3]
  binding of biotinylated oligosaccharide fraction to L-selectin-Ig: did not bind
[4]
  binding of biotinylated oligosaccharide fraction to γ-interferon inducible protein-10: did not bind
[5]
  binding of biotinylated oligosaccharide fraction to P-selectin-Ig: did not bind

## intact versican: versican from conditioned medium of sodium chlorate-untreated ACHN cells
[7]
  binding to γ-interferon inducible protein-10: remarkably bound
[8]
  binding to L-selectin-Ig: bound
[9]
  binding to anti-versican monoclonal antibody 2B1: bound
[10]
  binding to platelet factor 4: remarkably bound
[11]
  binding to CD44-Ig: bound
[12]
  binding to stromal cell-derived factor-1α: did not bind
[13]
  binding to secondary lymphoid tissue chemokine: remarkably bound
[14]
  binding to stromal cell-derived factor-1β: remarkably bound
[15]
  binding to recombinant truncated-type secondary lymphoid tissue chemokine: scarcely bound
[16]
  binding to P-selectin-Ig: bound

## keratan sulfate
[17]
  inhibition of binding between biotinylated versican and L-selectin-Ig: not inhibited
[18]
  inhibition of binding between biotinylated versican and P-selectin-Ig: not inhibited
[19]
  inhibition of binding between biotinylated versican and CD44-Ig: not inhibited

## low-sulfated versican: versican from conditioned medium of ACHN cells treated with 100 mM sodium chlorate, mainly unsulfated CS/DS chain
[9]
  binding to anti-versican monoclonal antibody 2B1: bound
[11]
  binding to CD44-Ig: bound
[12]
  binding to stromal cell-derived factor-1α: did not bind
[15]
  binding to recombinant truncated-type secondary lymphoid tissue chemokine: scarcely bound

## unsulfated versican: versican from ACHN cells treated with 30 mM sodium chlorate
[20]
  interaction with E-selectin-Ig: did not interact

B1: GlyCAM-1: known ligand of L-selectin (protein, UniProt Q02596 20-151, looked up)
Glycosylation-dependent cell …: LPGSKDELQMKTQPTDAIPAAQSTPTSYTSEESTSSKDLSKEPSIFREELISKDNVVIESTKPENQEAQDGLRSGSSQLEETTRPTTSAATTSEENLTKSSQTVEEELGKIIEGFVTGAEDIISGASRITKS
[21]
  Kd: 108 µM
  association rate: ≥ 10^5 M^−1s^−1
